ChEMBL document CHEMBL1140276, “Synthesis of 4(5)-phenylimidazole-based analogues of sphingosine-1-phosphate and FTY720: discovery of potent S1P1 receptor agonists” (Bioorg Med Chem Lett, 2005)
Blank lines part the entries; values can stand above or below the compound they belong to.

How the values were obtained:
[1] = biological target: T1, Sphingosine 1-phosphate receptor 1 (Homo sapiens, UniProt P21453); experiment: Effective concentration against sphingosine-1-phosphate receptor 1 determined by a [c-35S]-GTP binding assay
[2] = biological target: T2, Sphingosine 1-phosphate receptor 3 (Homo sapiens, UniProt Q99500); experiment: Effective concentration against sphingosine 1-phosphate receptor 3 determined by a [c-35S]-GTP binding assay
[3] = biological target: T3, Sphingosine 1-phosphate receptor 4 (Homo sapiens, UniProt O95977); experiment: Effective concentration against sphingosine 1-phosphate receptor 4 determined by a [c-35S]-GTP binding assay
T3 sequence (O95977 whole entry): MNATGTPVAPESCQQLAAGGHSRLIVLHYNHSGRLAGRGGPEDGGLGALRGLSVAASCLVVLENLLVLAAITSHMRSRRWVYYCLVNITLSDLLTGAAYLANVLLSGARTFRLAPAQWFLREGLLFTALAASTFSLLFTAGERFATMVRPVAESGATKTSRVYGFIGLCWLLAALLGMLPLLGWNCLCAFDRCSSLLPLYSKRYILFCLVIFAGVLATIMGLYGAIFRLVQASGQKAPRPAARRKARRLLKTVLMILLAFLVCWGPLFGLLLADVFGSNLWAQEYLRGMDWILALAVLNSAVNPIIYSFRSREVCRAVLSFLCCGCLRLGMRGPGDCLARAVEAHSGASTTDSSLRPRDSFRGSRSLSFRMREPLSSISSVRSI

[4] = biological target: T4, Sphingosine 1-phosphate receptor 5 (Homo sapiens, UniProt Q9H228); experiment: Effective concentration against sphingosine 1-phosphate receptor 5 determined by a [c-35S]-GTP binding assay
[5] = biological target: T1, Sphingosine 1-phosphate receptor 1; experiment: Maximal efficacy against sphingosine-1-phosphate receptor 1 determined by a [c-35S]-GTP binding assay
[6] = biological target: T5, Sphingosine 1-phosphate receptor 2 (Homo sapiens, UniProt O95136); experiment: Maximal efficacy against sphingosine 1-phosphate receptor 2 determined by a [c-35S]-GTP binding assay
[7] = biological target: T2, Sphingosine 1-phosphate receptor 3; experiment: Maximal efficacy against sphingosine 1-phosphate receptor 3 determined by a [c-35S]-GTP binding assay
[8] = biological target: T6, Sphingosine 1-phosphate receptor 4 (Homo sapiens) (UniProt O95977); experiment: Maximal efficacy against sphingosine 1-phosphate receptor 4 determined by a [c-35S]-GTP binding assay
T6 sequence (whole entry): T3 sequence (O95977 whole entry)

[9] = biological target: T4, Sphingosine 1-phosphate receptor 5; experiment: Maximal efficacy against sphingosine 1-phosphate receptor 5 determined by a [c-35S]-GTP binding assay
[10] = biological target: T5, Sphingosine 1-phosphate receptor 2; experiment: Maximal efficacy against sphingosine 1-phosphate receptor 2 determined by a [c-35S]-GTP binding assay; no agonist activity
[11] = biological target: T2, Sphingosine 1-phosphate receptor 3; experiment: Maximal efficacy against sphingosine 1-phosphate receptor 3 determined by a [c-35S]-GTP binding assay; no agonist activity
[12] = biological target: T6, Sphingosine 1-phosphate receptor 4 (Homo sapiens); experiment: Maximal efficacy against sphingosine 1-phosphate receptor 4 determined by a [c-35S]-GTP binding assay; no agonist activity
[13] = biological target: T5, Sphingosine 1-phosphate receptor 2; experiment: Maximal efficacy against sphingosine 1-phosphate receptor 2 determined by a [c-35S]-GTP binding assay;
[14] = biological target: T5, Sphingosine 1-phosphate receptor 2; experiment: Effective concentration against sphingosine 1-phosphate receptor 2 determined by a [c-35S]-GTP binding assay

T2 sequence (Q99500 whole entry): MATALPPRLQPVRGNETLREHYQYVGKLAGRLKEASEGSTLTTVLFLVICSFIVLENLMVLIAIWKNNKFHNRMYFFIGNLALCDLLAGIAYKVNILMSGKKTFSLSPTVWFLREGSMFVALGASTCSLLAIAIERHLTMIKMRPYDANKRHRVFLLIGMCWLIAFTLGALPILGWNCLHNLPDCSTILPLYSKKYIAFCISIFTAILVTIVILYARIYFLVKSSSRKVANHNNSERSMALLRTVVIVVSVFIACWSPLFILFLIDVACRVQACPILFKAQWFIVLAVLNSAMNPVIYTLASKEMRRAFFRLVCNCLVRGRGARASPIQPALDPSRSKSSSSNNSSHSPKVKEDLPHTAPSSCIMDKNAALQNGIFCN
T1 sequence (P21453 whole entry): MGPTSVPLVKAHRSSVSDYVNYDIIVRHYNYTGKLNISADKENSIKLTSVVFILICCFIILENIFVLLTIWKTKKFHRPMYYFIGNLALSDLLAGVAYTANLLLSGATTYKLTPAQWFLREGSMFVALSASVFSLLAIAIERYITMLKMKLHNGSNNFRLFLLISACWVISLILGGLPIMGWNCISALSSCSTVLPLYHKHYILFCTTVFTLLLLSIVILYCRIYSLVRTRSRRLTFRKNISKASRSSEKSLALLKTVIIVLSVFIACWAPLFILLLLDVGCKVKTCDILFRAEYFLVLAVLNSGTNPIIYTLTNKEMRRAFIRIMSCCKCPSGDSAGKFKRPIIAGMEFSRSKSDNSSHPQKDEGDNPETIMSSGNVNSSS
T4 sequence (Q9H228 whole entry): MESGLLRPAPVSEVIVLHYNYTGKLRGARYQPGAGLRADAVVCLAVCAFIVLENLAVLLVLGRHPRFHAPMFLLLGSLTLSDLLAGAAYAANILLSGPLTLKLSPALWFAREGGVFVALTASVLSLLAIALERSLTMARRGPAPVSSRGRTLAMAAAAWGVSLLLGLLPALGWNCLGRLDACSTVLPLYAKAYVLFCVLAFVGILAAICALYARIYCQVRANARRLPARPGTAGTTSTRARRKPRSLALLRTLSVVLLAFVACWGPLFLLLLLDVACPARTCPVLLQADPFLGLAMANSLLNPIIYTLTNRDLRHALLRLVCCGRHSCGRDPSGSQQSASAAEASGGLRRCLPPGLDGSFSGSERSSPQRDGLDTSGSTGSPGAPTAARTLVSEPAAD
T5 sequence (O95136 whole entry): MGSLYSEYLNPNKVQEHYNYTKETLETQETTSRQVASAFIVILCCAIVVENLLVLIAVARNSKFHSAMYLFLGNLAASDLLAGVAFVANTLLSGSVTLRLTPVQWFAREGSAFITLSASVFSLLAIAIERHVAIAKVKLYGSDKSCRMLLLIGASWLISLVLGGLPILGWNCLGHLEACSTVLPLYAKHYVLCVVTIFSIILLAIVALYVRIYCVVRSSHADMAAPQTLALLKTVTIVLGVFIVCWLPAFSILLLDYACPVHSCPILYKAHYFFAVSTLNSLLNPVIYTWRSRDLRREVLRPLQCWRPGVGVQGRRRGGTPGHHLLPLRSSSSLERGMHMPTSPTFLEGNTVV

SMILES: CCCCCCCCc1ccc(-c2c[nH]c([C@@H](N)COP(O)(O)=S)n2)cc1
EC50 [1]: 0.0064 µM | EC50 [2]: 0.69 µM | EC50 [3]: 0.19 µM | EC50 [4]: 0.029 µM | Emax [5]: 0.67 | Emax [6]: 0 | Emax [7]: 0.45 | Emax [8]: 0.82 | Emax [9]: 0.82

SMILES: CCCCCCCCc1ccc(-c2c[nH]c(C(C)(N)CO)n2)cc1 (configuration not stated)
Emax [5]: 0 | Emax [9]: 0 | Emax [10]: 0 | Emax [11]: 0 | Emax [12]: 0

SMILES: CCCCCCCCCCCCC/C=C/[C@@H](O)[C@@H](N)COP(=O)(O)O
Emax [5]: 1 | Emax [6]: 1 | Emax [7]: 1 | Emax [8]: 1 | Emax [9]: 1

SMILES: CCCCCCCCc1ccc(CCC(N)(CO)COP(=O)(O)O)cc1 (configuration not stated)
EC50 [3]: 0.041 µM | Emax [5]: 1 | Emax [6]: 0 | Emax [7]: 0.5 | Emax [8]: 0.78 | Emax [9]: 0.56

SMILES: CCCCCCCCc1ccc(-c2c[nH]c(C(N)(CO)COP(O)(O)=S)n2)cc1 (configuration not stated)
EC50 [1]: 0.15 µM | EC50 [2]: 0.79 µM | EC50 [3]: 0.089 µM | EC50 [4]: 0.016 µM | Emax [5]: 0.66 | Emax [6]: 0 | Emax [7]: 0.68 | Emax [8]: 0.72 | Emax [9]: 0.56

SMILES: CCCCCCCCc1ccc(-c2c[nH]c([C@H](N)CO)n2)cc1
EC50 [1]: 2.7 µM | EC50 [2]: 2.7 µM | EC50 [3]: 7.4 µM | EC50 [4]: 0.86 µM | Emax [5]: 0.98 | Emax [6]: 0 | Emax [7]: 0.38 | Emax [8]: 0.9 | Emax [9]: 0.83

SMILES: CCCCCCCCc1ccc(-c2c[nH]c(C(C)(N)COP(O)(O)=S)n2)cc1 (configuration not stated)
EC50 [1]: 0.0098 µM | EC50 [2]: 1.6 µM | EC50 [3]: 0.17 µM | EC50 [4]: 0.051 µM | Emax [5]: 0.87 | Emax [6]: 0 | Emax [7]: 0.44 | Emax [8]: 0.68 | Emax [9]: 0.6

Now from value to compound:

EC50 [1]: 0.007 µM | EC50 [2]: 1.7 µM | EC50 [3]: 0.4 µM | EC50 [4]: 0.037 µM | Emax [5]: 0.75 | Emax [6]: 0 | Emax [7]: 0.56 | Emax [8]: 1 | Emax [9]: 0.73
SMILES: CCCCCCCCc1ccc(-c2c[nH]c([C@H](N)COP(=O)(O)O)n2)cc1

EC50 [1]: 0.0047 µM | EC50 [2]: 0.78 µM | EC50 [3]: 0.091 µM | EC50 [4]: 0.026 µM | Emax [5]: 0.88 | Emax [6]: 0 | Emax [7]: 0.53 | Emax [8]: 0.94 | Emax [9]: 0.72
SMILES: CCCCCCCCc1ccc(-c2c[nH]c(C(C)(N)COP(=O)(O)O)n2)cc1 (configuration not stated)

EC50 [1]: 5.1 µM | EC50 [3]: 0.66 µM | EC50 [4]: 6.7 µM | Emax [5]: 0.66 | Emax [6]: 0 | Emax [7]: 0 | Emax [8]: 0.79 | Emax [9]: 0.48
SMILES: CCCCCCCCc1ccc(-c2c[nH]c(C(N)(CO)CO)n2)cc1

EC50 [1]: 0.004 µM | EC50 [2]: 0.33 µM | EC50 [3]: 0.15 µM | EC50 [4]: 0.012 µM | Emax [5]: 0.69 | Emax [7]: 0.42 | Emax [8]: 0.79 | Emax [9]: 0.69 | Emax [13]: 0
SMILES: CCCCCCCCc1ccc(-c2c[nH]c([C@@H](N)COP(=O)(O)O)n2)cc1

EC50 [1]: 0.0079 µM | EC50 [14]: 0.018 µM | EC50 [2]: 0.63 µM | EC50 [3]: 0.16 µM | EC50 [4]: 0.017 µM | Emax [5]: 0.91 | Emax [6]: 0.95 | Emax [7]: 0.21 | Emax [8]: 0.87 | Emax [9]: 0.66
SMILES: CCCCCCCCc1ccc(-c2c[nH]c(C(N)(CO)COP(=O)(O)O)n2)cc1 (configuration not stated)
